Our source for the Residual rate values is patent publication EP4692072A1, “PHOTOCHROMIC COMPOUND, PROPARGYL ALCOHOL COMPOUND, CURABLE COMPOSITION, OPTICAL ARTICLE, LENS, AND SPECTACLES” (TOKUYAMA CORPORATION, priority 2023, dated 2024).

Series [1] can be described thus: Accelerated deterioration (xenon weather meter X25, 120 hours) of photochromic cured product prepared by kneading method. The class given is physicochemical. To be noted: 1 mm cured product, 0.106 mmol per 100 g monomer, A120/A0×100 after 120 hours xenon weather meter. On the procedure: • [1] Maximum Absorption Wavelength (λmax): The maximum absorption wavelength after color development, measured using a spectrophotometer (instantaneous multichannel photodetector MCPD3000) manufactured by Otsuka Electronics Co., Ltd. was used as an indicator for the color tone during the color development. • [2] 23°C Color Optical Density (A23): A difference between an absorbancy measured after light irradiation at 23°C for 300 seconds {ε(300)} and an absorbancy without light irradiation ε(0) at the maximum absorption wavelength was used as an indicator for the color optical density. […] 23°C color fading half-life [τ1/2 (sec.)]: A time required for the absorbancy of the sample at the maximum absorption wavelength to decrease to 1/2 of {ε(300)-ε(0)} when the light irradiation was terminated after the light irradiation at 23°C for 300 seconds, was used as an indicator for the color fading speed. The shorter this time, the higher the color fading speed. • [4] Residual rate (A120/A0×100): The obtained photochromic plastic lens was subjected to accelerated deterioration using a xenon weather meter X25 manufactured by Suga Test Instruments Co., Ltd. for 120 hours. Subsequently, the color optical density was evaluated before and after the test, then a color optical density before the test (A0) and a color optical density after the test (A120) were measured, and a ratio (A120/A0) was defined as a residual rate. The residual rate was used as an indicator for a color developing durability. The higher the residual rate, the higher the color developing durability. The results of Examples 26, 50, and Comparative Examples 1 to 8 are summarized in Table 1, and the results of Examples 27 to 49 are summarized in Tables 2 and 3.
First, the photochromic compound obtained in Example 1, additives, and a polymerizable compound were mixed to obtain a curable composition.
As the polymerizable compound, a combination of the following polymerizable monomers was used. • 1,3-bis(isocyanatomethyl)cyclohexane: 36.7 parts by mass Pentaerythritol tetrakis(3-mercaptopropionate): 39.4 parts by mass • Polyoxyethylene polyoxypropylene lauryl ether (Wonder Surf 140 manufactured by Aoki Oil Industrial Co., Ltd.): 17.4 parts by mass • 1-decanethiol: 2.8 parts by mass • RX-1 adjusted according to the method described in Patent Document 13: 3.8 parts by mass
Note that the photochromic compound was added to the curable composition so that the amount of the photochromic compound was 0.106 mmol based on 100 g of the total amount of the polymerizable monomer. The following additives were used: Dimethyltin dichloride • : 0.05 part by mass • Irganox 245: 0.1 part by mass • 2-ethylhexyl 4-methoxycinnamate: 0.6 part by mass
The prepared curable composition was thoroughly defoamed, then injected into a glass mold having a 1 mm gap, and polymerized by cast polymerization. The polymerization was carried out in an air furnace while gradually raising the temperature from 27°C to 120°C over 18 hours. After the polymerization, the cured product was removed from the glass mold to obtain a photochromic cured product having a thickness of 1 mm. The obtained photochromic cured product was evaluated in the same manner as in Example 26.
(Examples 85 to 99, and Comparative Example 14 to 18) Photochromic cured products were prepared using photochromic compounds presented in Tables 6 and 7 in the same manner as in Example 84. The results of Examples 84 and 85 and Comparative Examples 14 to 18 are summarized in Table 6, and the results of Examples 86 to 99 are summarized in Table 7.

Series [2] is described as follows: Accelerated deterioration (xenon weather meter X25, 120 hours) of photochromic laminate prepared by coating method. In kind it is physicochemical. The following applies: 0.25 mmol per 100 g monomers, A120/A0×100 after 120 hours xenon weather meter. In outline:
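Photochromic compound at 0.25 mmol per 100 g of methacrylate monomers, spin-coated as a 40 µm layer on a primed 1.60-index thiourethane lens, then light-cured and heated at 110°C for 1 h. Color optical density at λmax (23°C, 300 s irradiation) measured before (A0) and after 120 h xenon exposure (A120). Residual rate = A120/A0×100.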

With `CCN(c1ccc(OC)cc1)c1ccc(C2(c3ccc(OC)cc3)C=Cc3c4c(c5cc(-c6ccc(N7CCOCC7)cc6)c(OC)cc5c3O2)-c2ccccc2C4(C)C)cc1` (centres unmarked) [Example 25], the Residual rate amounted to 68% in series [1] and 63% in series [2].
